Measured values reported in PubChem BioAssay AID206 (DTP/NCI, 2004).
Values joined by “and” are separate entries in the source; they are usually repeats but may differ in a detail not shown here. Equal values may be shown once. Records with an inconclusive call do not appear.

System: nude mice, HT29 intrarenal xenograft, tumor weight T/C
Assay: NCI In Vivo Anticancer Drug Screen. Data for tumor model HT29;CX-1 Human Adenocarcinoma (MER+) (intrarenal inoculation) in NU/NU Swiss (nude) mice
Conditions: endpoint: mean tumor weight change, higher = larger tumour
How it was run: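 Readout: treated/vehicle-control ratio of the measured endpoint (tumor size or survival) in transplanted-tumor mice.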

[1] = dose: 37.5 mg/kg/injection, schedule: Q04DX004 (sc), vehicle: saline
[2] = dose: 75.0 mg/kg/injection, schedule: Q04DX004 (sc), vehicle: saline
[3] = dose: 25.0 mg/kg/injection, schedule: Q01DX010 (sc), vehicle: saline
[4] = dose: 50.0 mg/kg/injection, schedule: Q01DX010 (sc), vehicle: saline
[5] = dose: 75.0 mg/kg/injection, schedule: Q04DX004 (sc), vehicle: saline with Tween-80
[6] = dose: 150.0 mg/kg/injection, schedule: Q04DX004 (sc), vehicle: saline with Tween-80
[7] = dose: 100.0 mg/kg/injection, schedule: Q01DX010 (sc), vehicle: saline
[8] = dose: 400.0 mg/kg/injection, schedule: Q01DX010 (sc), vehicle: Klucel (hydroxypropylcellulose) (HPC)
[9] = dose: 0.13 mg/kg/injection, schedule: Q01DX010 (sc), vehicle: saline
[10] = dose: 0.5 mg/kg/injection, schedule: Q01DX010 (sc), vehicle: saline
[11] = dose: 100.0 mg/kg/injection, schedule: Q04DX004 (sc), vehicle: suspension in saline
[12] = dose: 1.0 mg/kg/injection, schedule: Q01DX010 (sc), vehicle: saline

With `COc1cccc2c1C(=O)c1c(O)c3c(c(O)c1C2=O)C[C@@](O)(C(=O)CO)C[C@@H]3OC1CC(N)C(OC)C(C)O1` (some centres undefined) the T/C (dose: 3.13 mg/kg/injection, schedule: Q04DX004 (sc), vehicle: saline) was 207 % of control.
`O=C(O)C(O)C(O)C1[O][Sb][O]C1C(=O)O` (centres undefined) was tested, and the T/C [1] was 100 % of control, the T/C [2] was 73 % of control and the T/C (dose: 150.0 mg/kg/injection, schedule: Q04DX004 (sc), vehicle: saline) was 93 % of control.
In the case of `COc1cccc2c1C(=O)c1c(O)c3c(c(O)c1C2=O)C[C@H](O)C[C@@H]3OC1CC(N)C(O)C(C)O1` (some centres undefined), the T/C (dose: 12.5 mg/kg/injection, schedule: Q01DX010 (sc), vehicle: saline) is reported as 114 % of control, the T/C [3] is reported as 41 % of control and the T/C [4] is reported as 87 % of control.
In the case of `O.O.[NH-]C1CCCCC1[NH-].[Pt+2]` (centres undefined), the T/C (dose: 10.0 mg/kg/injection, schedule: Q01DX010 (sc), vehicle: saline) is reported as 74 % of control and the T/C (dose: 20.0 mg/kg/injection, schedule: Q01DX010 (sc), vehicle: saline) is reported as 54 % of control.
With `C[C@H](CCC[C@H](C)OS(=O)(=O)c1ccccc1)OS(=O)(=O)c1ccccc1` the T/C [5] was 49 % of control and the T/C [6] was 35 % of control.
`NC(C/[N+]([O-])=N/O)C(=O)O` (centres undefined) was tested, and the T/C [4] was 186 % of control and the T/C [7] was 53 % of control.
For `C=C1C(=O)C23[C@H](O)C1CC[C@H]2[C@]12COC3(O)[C@@H](O)[C@@H]1C(C)(C)CC[C@@H]2O`, the T/C (dose: 25.0 mg/kg/injection, schedule: Q04DX004 (sc), vehicle: Klucel (hydroxypropylcellulose) (HPC)) was 80 % of control.
In the case of `CCCCCn1c(C)cc(/C=C\c2ccc3cc(C)ccc3[n+]2C)c1C`, the T/C (dose: 1.0 mg/kg/injection, schedule: Q01DX010 (sc), vehicle: Klucel (hydroxypropylcellulose) (HPC)) is reported as 89 % of control, the T/C (dose: 2.0 mg/kg/injection, schedule: Q01DX010 (sc), vehicle: Klucel (hydroxypropylcellulose) (HPC)) is reported as 182 % of control and the T/C (dose: 4.0 mg/kg/injection, schedule: Q01DX010 (sc), vehicle: Klucel (hydroxypropylcellulose) (HPC)) is reported as 89 % of control.
With `COC(=O)C(Cl)(Cl)N=Nc1c(Cl)cc(Cl)c(C)c1Cl` the T/C (dose: 225.0 mg/kg/injection, schedule: Q04DX004 (sc), vehicle: saline with Tween-80) was 87 % of control, the T/C (dose: 450.0 mg/kg/injection, schedule: Q04DX004 (sc), vehicle: saline with Tween-80) was 105 % of control and the T/C (dose: 900.0 mg/kg/injection, schedule: Q04DX004 (sc), vehicle: saline with Tween-80) was 81 % of control. The T/C (dose: 1800.0 mg/kg/injection, schedule: Q04DX004 (sc), vehicle: saline with Tween-80) was 115 % of control.
With `CN(C)c1ccc(C(=C2C=CC(=[N+](C)C)C=C2)c2ccc(N(C)C)cc2)cc1` (tested in a mixture with another compound) the T/C (dose: 1.25 mg/kg/injection, schedule: Q01DX010 (sc), vehicle: saline with Tween-80) was 86 % of control, the T/C (dose: 2.5 mg/kg/injection, schedule: Q01DX010 (sc), vehicle: saline with Tween-80) was 111 % of control and the T/C (dose: 5.0 mg/kg/injection, schedule: Q01DX010 (sc), vehicle: saline with Tween-80) was 100 % of control. The T/C (dose: 10.0 mg/kg/injection, schedule: Q01DX010 (sc), vehicle: saline with Tween-80) was 60 % of control.
In the case of `COC1N(C2CC(O)C(CO)O2)C(=O)NC(=O)C1(F)Br` (centres undefined), the T/C [3] is reported as 28 % of control.
With `Cc1ccc2c(ccc(CC(=S)[S-])[n+]2C)c1` the T/C (dose: 50.0 mg/kg/injection, schedule: Q01DX010 (sc), vehicle: Klucel (hydroxypropylcellulose) (HPC)) was 96 % of control, the T/C (dose: 100.0 mg/kg/injection, schedule: Q01DX010 (sc), vehicle: Klucel (hydroxypropylcellulose) (HPC)) was 85 % of control and the T/C (dose: 200.0 mg/kg/injection, schedule: Q01DX010 (sc), vehicle: Klucel (hydroxypropylcellulose) (HPC)) was 44 % of control. The T/C [8] was 67 % of control.
`COc1cc(NCCCCCCCNC(C)C)c2nccc(C)c2c1` was tested, and the T/C (dose: 18.7 mg/kg/injection, schedule: Q04DX004 (sc), vehicle: saline) was 56 % of control, the T/C [1] was 85 % of control and the T/C [2] was 71 % of control.
In the case of `COC1=C(N)C(=O)c2nc(-c3nc(C(=O)O)c(C)c(-c4ccc(OC)c(OC)c4O)c3N)ccc2C1=O`, the T/C [9] is reported as -33 % of control and the T/C [10] is reported as -10 % of control.
For `Nc1nnc[se]1`, the T/C (dose: 50.0 mg/kg/injection, schedule: Q04DX004 (sc), vehicle: saline with Tween-80) was 58 % of control, the T/C (dose: 100.0 mg/kg/injection, schedule: Q04DX004 (sc), vehicle: saline with Tween-80) was 33 % of control and the T/C (dose: 200.0 mg/kg/injection, schedule: Q04DX004 (sc), vehicle: saline with Tween-80) was 34 % of control. The T/C (dose: 400.0 mg/kg/injection, schedule: Q04DX004 (sc), vehicle: saline with Tween-80) was 23 % of control.
`CC(C)=CCNc1ncnc2c1ncn2C1OC(CO)C(O)C1O` (centres undefined) was tested, and the T/C (dose: 400.0 mg/kg/injection, schedule: Q04DX004 (sc), vehicle: suspension in saline) was 62 % of control.
`CCN(C)N=Nc1ccc(C(N)=O)cc1` was tested, and the T/C (dose: 75.0 mg/kg/injection, schedule: Q04DX004 (sc), vehicle: Klucel (hydroxypropylcellulose) (HPC)) was 92 % of control and the T/C (dose: 150.0 mg/kg/injection, schedule: Q04DX004 (sc), vehicle: Klucel (hydroxypropylcellulose) (HPC)) was 68 % of control.
In the case of `CCOC(=O)Nc1cc2c(c(N)n1)N=C(CN(C)c1ccccc1)CN2`, the T/C (dose: 6.0 mg/kg/injection, schedule: Q01DX010 (sc), vehicle: Klucel (hydroxypropylcellulose) (HPC)) is reported as 35 % of control, the T/C (dose: 12.0 mg/kg/injection, schedule: Q01DX010 (sc), vehicle: Klucel (hydroxypropylcellulose) (HPC)) is reported as 45 % of control and the T/C (dose: 24.0 mg/kg/injection, schedule: Q01DX010 (sc), vehicle: Klucel (hydroxypropylcellulose) (HPC)) is reported as 53 % of control.
In the case of `C1CN2CN3CCN(CN1C3)C2`, the T/C [7] is reported as 93 % of control and the T/C (dose: 200.0 mg/kg/injection, schedule: Q01DX010 (sc), vehicle: saline) is reported as 95 % of control.
With `CN(N=O)C(N)=O` the T/C (dose: 12.5 mg/kg/injection, schedule: Q01DX010 (sc), vehicle: saline with Tween-80) was 119 % of control, the T/C (dose: 25.0 mg/kg/injection, schedule: Q01DX010 (sc), vehicle: saline with Tween-80) was 41 % of control and the T/C [11] was 101 % of control.
`CC(=O)O[C@H]1C(=O)[C@@]2(C)[C@H]([C@H](OC(=O)c3ccccc3)[C@]3(O)C[C@H](OC(=O)[C@H](O)[C@@H](NC(=O)c4ccccc4)c4ccccc4)C(C)=C1C3(C)C)[C@]1(OC(C)=O)CO[C@@H]1C[C@@H]2O` was tested, and the T/C [8] was 3 % of control and 12 % of control and 16 % of control.
`Oc1ccccc1C=NCCC[N-]CCCN=Cc1ccccc1O.[Co]` was tested, and the T/C (dose: 25.0 mg/kg/injection, schedule: Q01DX010 (sc), vehicle: suspension in saline) was 109 % of control and the T/C (dose: 100.0 mg/kg/injection, schedule: Q01DX010 (sc), vehicle: suspension in saline) was 73 % of control and 76 % of control.
In the case of `NC(=O)c1cn(C2OC(CO)C(O)C2O)c2ncnc(N)c12` (centres undefined), the T/C [12] is reported as 115 % of control and the T/C (dose: 2.0 mg/kg/injection, schedule: Q01DX010 (sc), vehicle: saline) is reported as 94 % of control.
With `O=[N+]([O-])c1ccc(-n2[nH]nnc2=S)cc1` the T/C (dose: 100.0 mg/kg/injection, schedule: Q04DX004 (sc), vehicle: Klucel (hydroxypropylcellulose) (HPC)) was 94 % of control, the T/C (dose: 200.0 mg/kg/injection, schedule: Q04DX004 (sc), vehicle: Klucel (hydroxypropylcellulose) (HPC)) was 92 % of control and the T/C (dose: 400.0 mg/kg/injection, schedule: Q04DX004 (sc), vehicle: Klucel (hydroxypropylcellulose) (HPC)) was 96 % of control. For the same compound, the T/C (dose: 800.0 mg/kg/injection, schedule: Q04DX004 (sc), vehicle: Klucel (hydroxypropylcellulose) (HPC)) was 80 % of control.
With `CCCCCCCCCCCCSC1=C(Cl)C(=O)C(OC)=C(OC)C1=O` the T/C [5] was 76 % of control, the T/C [6] was 36 % of control and the T/C (dose: 300.0 mg/kg/injection, schedule: Q04DX004 (sc), vehicle: saline with Tween-80) was 25 % of control.
`NC(C(=O)O)c1ccc(CBr)cc1` (centres undefined) was tested, and the T/C (dose: 50.0 mg/kg/injection, schedule: Q04DX004 (sc), vehicle: acid diluted with saline) was 76 % of control, the T/C (dose: 100.0 mg/kg/injection, schedule: Q04DX004 (sc), vehicle: acid diluted with saline) was 70 % of control and the T/C (dose: 200.0 mg/kg/injection, schedule: Q04DX004 (sc), vehicle: acid diluted with saline) was 65 % of control. The T/C (dose: 400.0 mg/kg/injection, schedule: Q04DX004 (sc), vehicle: acid diluted with saline) was 52 % of control.
With `CCOC(=O)C1=C(C#N)C2(CCC(OCc3ccccc3)CC2)C(=O)O1` (centres undefined) the T/C [11] was 91 % of control and the T/C (dose: 800.0 mg/kg/injection, schedule: Q04DX004 (sc), vehicle: suspension in saline) was 110 % of control.
`O=NNc1ccccn1` was tested, and the T/C [9] was 150 % of control, the T/C (dose: 0.25 mg/kg/injection, schedule: Q01DX010 (sc), vehicle: saline) was 176 % of control and the T/C [10] was 112 % of control. The T/C [12] was 208 % of control, the T/C (dose: 4.0 mg/kg/injection, schedule: Q01DX010 (sc), vehicle: saline) was 105 % of control and the T/C (dose: 32.0 mg/kg/injection, schedule: Q01DX010 (sc), vehicle: saline) was 90 % of control.
